Data reported in patent US10357477B2, “Anticancer compounds” (REGENTS OF THE UNIVERSITY OF MINNESOTA, priority 2016, dated 2019).
Values after ≈ are worked out from the molar mass of the structure shown.

What was measured:
[1] = Caco-2 permeability assay; assay type: in vitro ADME; settings: human, pH 7.4; for Papp A→B at 80 min: apical to basolateral; for Papp B→A at 80 min: basolateral to apical
Experimental: Cell Culture. The human colon adenocarcinoma cell line Caco-2 was purchased from ATCC (American Type Culture Collection, Manassas, Va.), and was cultured in a humidified atmosphere of 5% CO2 at 37° C. Caco-2 cells were cultured in DMEM with 10% FBS, 1% NEAA, 1% GlutaMax and 1% penicillin and streptomycin solution. The culture medium was changed every other day during cell growth and differentiation. On achieving 80-90% confluence, the cells were rinsed with pre-warm DPBS (pH 7.4) and split using trypsin. The cells were then seeded on membranes of Millipore Millicell-24 cell culture device. The transepithelial electrical resistance (TEER) were assessed to reflect membrane integrity using a Millicells® ERS-2 (Millipore, USA). The Caco-2 cell monolayers were used for transport experiments on day 21 post-seeding with TEER values >500 Ω·cm2. Bidirectional Transport Experiments. Before the transport experiments, the cell monolayer was washed three times with HBSS. Then, the plates were incubated in fresh permeability assay buffer (HBSS containing 10 mM glucose and 20 mM HEPES, pH 7.4) at 37° C. The experiments were conducted by spiking test compounds to either the apical (AP, 0.4 mL) or basolateral side (BL, 0.8 mL), while the receiving chamber contained the corresponding volume of pre-warmed permeability assay buffer. Every experiment was repeated in duplicate, and the plates were incubated in an orbital shaker at 37° C., 50 rpm/min. To assess the drug transport, at the incubation time of 20, 40, 60 and 80 min, aliquot was removed and was immediately replenished with an equal volume of permeability assay buffer. The samples were then subjected to LC/MS/MS analysis. The apparent permeability coefficient was indicated by the absorption rate constant Papp. It could be calculated as PBA (measured in BL to AP direction) or PAB (measured in AP to BL direction), using the equation of Papp=(dQ/dt)/(A×C0). dQ/dt is the rate at which the compound appears in the receiver chamber (nmol/s), A is the surface area of the filter membrane (0.7 cm2) and C0 is the initial concentration in the donor chamber (μM). Efflux ratio (ER) was calculated by the equation of ER=PBA/PAB, where PBA is the Papp value measured in BL to AP direction, and PAB is the Papp value measured in AP to BL direction.

[2] = system: MCF10A cells (normal human mammary cells); assay: Cell viability assay (MTT) in MCF10A cells; assay type: cell-based; settings: MCF-10A, 72 h
Experimental: MCF10A cells are maintained in minimum essential medium (MEM) (Invitrogen 11095) supplemented with 10% FBS (Invitrogen 16000), 1% 10× non-essential amino acids (NEAA) (Invitrogen 11140), 1% Penicillin/Streptomycin (Invitrogen 15140), 1% GlutaMAX (Invitrogen 35050-061), 20 ng/mL EGF, […] hydrocortisone, 100 ng/mL cholera toxin, 10 μg/mL insulin.
Cells were plated in 96-well plates at 25×10^4 cells/ml. After 24 hours, compounds were added at 9, 3× dilutions in triplicate from 100 uM final concentration in the appropriate growth media. Plates were incubated for 72 hours at 37° C. in a 5% CO2/95% air humidified atmosphere after which time the media was removed and MTT was added in RPMI phenol red free media. The MTT was removed after 3 hours and formazan crystals were solubilized with 200 μL of isopropanol. Plates were read on a Molecular Devices SpectraMax i3 spectrophotometer at 570 nm for formazan and 690 nm for background subtraction. EC50 values were calculated by fitting the data in GraphPad Prism software.

[3] = Microsomal stability assay, human liver microsomes; assay type: in vitro ADME; settings: pH 7.4; human liver microsomes 0.5 mg/mL, 1 mM NADPH, 1 μM compound; read-out: Microsomal Stability t1/2 Human
Experimental: (§1) The in vitro microsomal stability assay was conducted in triplicate in mouse and human liver microsomal systems. In a typical incubation, a compound (typically 1 μM final concentration) was spiked into the reaction mixture containing 0.5 mg/mL of liver microsomal protein and 1 mM of NADPH in 0.1 M potassium phosphate buffer (pH 7.4) at 37° C. At various time points, 1 volume of reaction aliquot was taken and quenched with 3 volumes of acetonitrile with an appropriate internal standard. The samples were then vortexed and centrifuged at 14,000 rpm for 5 min. The supernatants were collected and analyzed by LC-MS/MS to determine the in vitro metabolic half-life (t1/2) and intrinsic clearance (CLint). Verapamil was used as a positive control.
(§2) Quantification and analysis of compounds in biological samples were carried out on an AB Sciex QTrap 5500 mass spectrometer coupled with an Agilent 1260 Infinity HPLC. The chromatographic separation of compounds was achieved using a Phenomenex Kinetex C18 column (50×2.1 mm, 2.6 μm), and MS/MS analysis was conducted using an ESI ion source with MRM detection. The MS/MS detection parameters including declustering potential (DP), entrance potential (EP), collision energy (CE), and collision cell exit potential (CXP) were optimized for each compound.

[4] = Plasma stability assay, human plasma; assay type: in vitro ADME; settings: 37° C.
Experimental: (§3) The plasma stability assay was performed in triplicate by incubating a compound in normal mouse and human plasma at 37° C. At 0, 1, 3, 6, and 24 h, aliquots of the plasma mixture were taken and quenched with 3 volumes of acetonitrile containing an appropriate internal standard. The samples were then vortexed and centrifuged at 14,000 rpm for 5 min. The supernatants were collected and analyzed by LC-MS/MS to determine the remaining percentage at various time points.
as §2

[5] = Plasma stability assay, mouse plasma; assay type: in vitro ADME; settings: 37° C.
Experimental: as §3, §2

[6] = Thermodynamic solubility assay; assay type: physicochemical; settings: aqueous buffer, thermodynamic from solid, DPBS pH=7.4, 48 h, ambient temperature
Experimental: Briefly, a saturated solution was made by adding DPBS to the solid compound. The mixture was shaken at 200 rpm for 48 h in a MaxQ 6000 orbital shaker at ambient temperature to allow equilibrium between the solid and dissolved compound. The suspension was then filtered through a 0.45 μm PVDF syringe filter and the filtrate was collected for analysis using UV spectrometry (SpectraMax M5e, Molecular Devices) at λ=240 nm.

[7] = Microsomal stability assay, mouse liver microsomes; assay type: in vitro ADME; settings: pH 7.4; mouse liver microsomes 0.5 mg/mL, 1 mM NADPH, 1 μM compound; read-out: Microsomal Stability t1/2 Mouse
Experimental: as §1, §2

[8] = system: MIA PaCa-2 cells; assay: Cell viability assay (MTT) in MIA PaCa-2 cells; assay type: cell-based; settings: Homo sapiens, antiproliferative activity, 72 h
Method in brief: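 MIA PaCa-2 cells exposed 72 h at 37° C to 2-fold serial compound dilutions from 100 μM final, 0.5% DMSO, in triplicate. Viability by MTT (3 h), formazan read at 570 nm minus 650 nm; EC50 from curve fit.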

Compound	Papp A→B at 80 min [1] [×10⁻⁶ cm/s]	Papp B→A at 80 min [1] [×10⁻⁶ cm/s]	EC50 [2] [nM]	half-life at 1 μM [3] [min]	Plasma Stability (% remaining, 6 h/24 h) Human ([4]; 6 h) [%]	Plasma Stability (% remaining, 6 h/24 h) Human ([4]; 24 h)	Plasma Stability (% remaining, 6 h/24 h) Mouse ([5]; 6 h) [%]	Plasma Stability (% remaining, 6 h/24 h) Mouse ([5]; 24 h)	solubility at 48 h [6] [µM]	half-life at 1 μM [7] [min]	EC50 [8] [nM]
CNC(=O)c1cccc(Cn2nc(C)c(NC(=O)c3ccc(COc4ccc(C(F)(F)F)cc4C)cc3)c2C)c1 [Compound D10, 3-((3,5-Dimethyl-4-(4-((2-methyl-4-(trifluoromethyl)phenoxy)-methyl)benzamido)-1H-pyrazol-1-yl)methyl)-N-methylbenzamide]	3.72	11.2	4800	53	98	100%	88	93%	166 ± 2 (≈ 91.4 µg/mL)	53	620
CC(=O)Nc1cccc(Cn2nc(C)c(NC(=O)c3ccc(COc4ccc(C(F)(F)F)cc4)cc3)c2C)c1 [Compound D11, N-(1-(3-Acetamidobenzyl)-3,5-dimethyl-1H-pyrazol-4-yl)-4-((4-(trifluoromethyl)phenoxy)methyl)benzamide]	–	–	8600	8.3	96	94%	2.1	0.1%	–	7.4	870
CC(=O)Nc1cccc(Cn2nc(C)c(NC(=O)c3ccc(COc4ccc(C(F)(F)F)cc4C)cc3)c2C)c1 [Compound D12, N-(1-(3-Acetamidobenzyl)-3,5-dimethyl-1H-pyrazol-4-yl)-4-((2-methyl-4-(trifluoromethyl)phenoxy)methyl)benzamide]	–	–	6600	14	92	95%	1.6	0.1%	–	9.7	1100
CNC(=O)c1cccc(Cn2nc(C)c(NC(=O)c3ccc(COc4ccc(C(F)(F)F)cc4)cc3)c2C)n1 [Compound E1a, 6-((3,5-Dimethyl-4-(4-((4-(trifluoromethyl)phenoxy)methyl)-benzamido)-1H-pyrazol-1-yl)methyl)-N-methylpicolinamide]	24.5	21	7800	47	–	—/100%	–	—/99%	–	65	480
CNC(=O)c1cc(Cn2nc(C)c(NC(=O)c3ccc(COc4ccc(C(F)(F)F)cc4)cc3)c2C)ccn1 [Compound E2a, 4-((3,5-Dimethyl-4-(4-((4-(trifluoromethyl)phenoxy)methyl)benzamido)-1H-pyrazol-1-yl)methyl)-N-methylpicolinamide]	5.02	5.69	8300	112	–	—/98%	–	—/91%	–	64	850
CNC(=O)c1cc(Cn2nc(C)c(NC(=O)c3ccc(COc4ccc(C(F)(F)F)cc4C)cc3)c2C)ccn1 [Compound E2b, 4-((3,5-Dimethyl-4-(4-((2-methyl-4-(trifluoromethyl)phenoxy)methyl)benzamido)-1H-pyrazol-1-yl)methyl)-N-methylpicolinamide]	8.34	5.96	7400	89	–	—/100%	–	—/84%	211 ± 5 (≈ 116 µg/mL)	89	330
